Experimental data published in ChEMBL document CHEMBL1144292, “Estrogen receptor ligands. Part 11: Synthesis and activity of isochromans and isothiochromans” (Bioorg Med Chem Lett, 2005).
pIC50: −log10 of the molar value.

Key:
[1] = target: T1, Estrogen receptor (Homo sapiens, UniProt P03372)
T1 sequence (P03372 whole entry): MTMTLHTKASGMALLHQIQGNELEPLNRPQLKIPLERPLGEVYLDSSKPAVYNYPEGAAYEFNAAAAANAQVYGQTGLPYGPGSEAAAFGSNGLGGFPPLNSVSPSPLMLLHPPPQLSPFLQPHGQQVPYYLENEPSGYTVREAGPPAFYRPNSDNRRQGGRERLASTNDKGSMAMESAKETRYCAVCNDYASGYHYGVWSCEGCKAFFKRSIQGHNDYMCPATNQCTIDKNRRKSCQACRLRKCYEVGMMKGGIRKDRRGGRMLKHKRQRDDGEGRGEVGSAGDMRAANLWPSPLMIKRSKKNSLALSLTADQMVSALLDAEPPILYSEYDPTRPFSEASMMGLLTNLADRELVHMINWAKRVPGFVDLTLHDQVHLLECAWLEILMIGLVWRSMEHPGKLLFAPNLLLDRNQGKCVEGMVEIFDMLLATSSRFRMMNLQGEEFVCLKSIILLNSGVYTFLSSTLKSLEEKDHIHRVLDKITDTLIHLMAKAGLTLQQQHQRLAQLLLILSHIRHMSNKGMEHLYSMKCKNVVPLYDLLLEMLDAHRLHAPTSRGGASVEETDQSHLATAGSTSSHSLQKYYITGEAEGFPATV
Description: Binding affinity for human estrogen receptor alpha

[2] = target: Estrogen receptor (Homo sapiens, UniProt Q92731+P03372); conditions: mcf-7
Description: Inhibition of MCF-7 cell proliferation

[3] = target: Estrogen receptor beta (Homo sapiens, UniProt Q92731)
Chain of Estrogen receptor beta (Q92731 whole entry): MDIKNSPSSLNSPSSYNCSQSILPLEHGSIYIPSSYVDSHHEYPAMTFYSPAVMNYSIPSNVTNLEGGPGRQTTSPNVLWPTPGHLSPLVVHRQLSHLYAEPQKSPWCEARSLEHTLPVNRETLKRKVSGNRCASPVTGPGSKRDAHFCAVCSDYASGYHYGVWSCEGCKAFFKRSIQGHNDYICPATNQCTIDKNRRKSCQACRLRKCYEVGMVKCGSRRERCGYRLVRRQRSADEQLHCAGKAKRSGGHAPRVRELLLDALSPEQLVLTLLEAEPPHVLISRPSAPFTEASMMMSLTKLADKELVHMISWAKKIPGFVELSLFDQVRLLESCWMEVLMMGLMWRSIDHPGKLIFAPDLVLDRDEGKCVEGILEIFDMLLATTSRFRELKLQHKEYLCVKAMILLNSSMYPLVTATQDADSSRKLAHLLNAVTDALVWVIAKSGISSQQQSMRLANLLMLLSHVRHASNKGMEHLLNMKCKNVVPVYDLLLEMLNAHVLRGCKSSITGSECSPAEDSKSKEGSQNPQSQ
Description: Binding affinity for human estrogen receptor beta

Row | Compound | pIC50 [1] | IC50 [2] [nM] | pIC50 [3]
1 | COc1ccc2c(c1)CO[C@H](c1ccccc1)[C@@H]2c1ccc(OCCN2CCCC2)cc1 | 7.41 | 57 | 6.50
2 | COc1ccc2c(c1)CS[C@H](c1ccccc1)[C@@H]2c1ccc(OCCN2CCCC2)cc1 | 7.89 | 164 | 6.96
3 | Oc1ccc2c(c1)CO[C@H](c1ccccc1)[C@@H]2c1ccc(OCCN2CCCC2)cc1 | 8.62 | 0.15 | 8.44
4 | Oc1ccc2c(c1)CS[C@H](c1ccccc1)[C@@H]2c1ccc(OCCN2CCCC2)cc1 | 9.22 | 0.25 | 8.68
